The target in this assay is T1, Nitric oxide synthase oxygenase (Bacillus subtilis (strain 168), UniProt O34453).
T1 sequence (O34453 whole entry): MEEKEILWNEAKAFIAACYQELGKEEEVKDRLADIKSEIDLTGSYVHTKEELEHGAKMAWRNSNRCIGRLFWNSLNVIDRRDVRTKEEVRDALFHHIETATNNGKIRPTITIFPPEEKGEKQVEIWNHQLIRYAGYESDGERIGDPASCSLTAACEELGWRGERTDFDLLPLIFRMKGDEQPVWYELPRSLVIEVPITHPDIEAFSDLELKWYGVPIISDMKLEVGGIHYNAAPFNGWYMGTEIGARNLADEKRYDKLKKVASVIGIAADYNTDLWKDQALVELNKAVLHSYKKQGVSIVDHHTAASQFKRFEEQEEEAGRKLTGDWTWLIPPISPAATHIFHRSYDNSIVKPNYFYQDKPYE
The experiment in a line: Imidazole Spin Shift Assay.

pKd: −log10 of the molar value.

Broadly, the pKd is the Kd on a negative log10 scale, so that one unit is a factor of ten. For the compound `Cc1cc(N)nc(CCc2cccc([C@H](N)Cc3cc(C)cc(N)n3)c2)c1`, the pKd was 4.59. With `Cc1cc(N)nc(CCc2cc(C#N)cc(CCc3cc(C)cc(N)n3)c2)c1` the figure was 5.35; with `Cc1cc(N)nc(CCc2ccc(CCCN)c(CCc3cc(C)cc(N)n3)c2)c1`, 5.06. With `CNCCN(C)c1cccc(CCc2cc(C)cc(N)n2)c1` [4-methyl-6-[2-(3-{methyl[2-(methylamino)ethyl]amino}phenyl)ethyl]pyridin-2-amine (13)] the figure was 4.30; with `CNCCN(C)c1cncc(CCc2cc(C)cc(N)n2)c1` [4-methyl-6-[2-(5-{methyl[2-(methylamino)ethyl]amino}pyridin-3-yl)ethyl]pyridin-2-amine (14)], 4.24; with `Cc1cc(N)nc(CCc2cncc(CCc3cc(C)nc(N)c3)c2)c1` [6-(2-{5-[2-(2-amino-6-methylpyridin-4-yl)ethyl]pyridin-3-yl}ethyl)-4-methylpyridin-2-amine], 5.30.

As to `CNCCN(c1cc(F)cc(CCc2cc(C)cc(N)n2)c1)C1CC1` [6-[2-(3-{cyclopropyl[2-(methylamino)ethyl]amino}-5-fluorophenyl)ethyl]-4-methylpyridin-2-amine (18)], the negative-log Kd (pKd) is 4.21.

As to `NC(=Nc1cccc(OCCOc2cccc(N=C(N)c3cccs3)c2)c1)c1cccs1` [N-(3-{2-[3-(thiophene-2-imidamido)phenoxy]ethoxy}phenyl)thiophene-2-carboximidamide (26)], the pKd is 3.90.

With `N=C(Nc1cccc(CCc2cccc(NC(=N)c3cccs3)c2)c1)c1cccs1` [N-(3-{2-[3-(thiophene-2-imidamido)phenyl]ethyl}phenyl)thiophene-2-carboximidamide (19)], the pKd was 4.00.

On to `N=C(Nc1cccc(CNC[C@@H]2CCCN2)c1)c1cccs1` [N-[3-({[(2S)-pyrrolidin-2-ylmethyl]amino}methyl)phenyl]thiophene-2-carboximidamide (20)], for which the pKd was 4.75. With `N=C(Nc1cccc(COC[C@H]2C[C@H](OCc3cccc(NC(=N)c4cccs4)c3)CN2)c1)c1cccs1` [N-[3-({[(3S,5R)-5-({[3-(thiophene-2-imidamido)phenyl]methoxy}methyl)pyrrolidin-3-yl]oxy}methyl)phenyl]-2H-1λ⁴-thiophene-2-carboximidamide (28)] the figure was 5.11. The figure for `N=C(Nc1cccc(COC[C@@H]2C[C@H](OCc3cccc(NC(=N)c4cccs4)c3)CN2)c1)c1cccs1` [N-[3-({[(3S,5S)-5-({[3-(thiophene-2-imidamido)phenyl]methoxy}methyl)pyrrolidin-3-yl]oxy}methyl)phenyl]-2H-1λ⁴-thiophene-2-carboximidamide (25)] is 4.96.

The values above are taken from BindingDB's records for doi:10.1021/acs.biochem.5b00431 (University of California Irvine, 2015).
